# Test results: patent US11976057B2, “MrgX2 antagonists” (GlaxoSmithKline Intellectual Property Development Limited, priority 2020, dated 2024)
# Molecular target: T1, human MRGPRX2 (Homo sapiens, UniProt Q96LB1)
# T1 sequence (Q96LB1 1-330): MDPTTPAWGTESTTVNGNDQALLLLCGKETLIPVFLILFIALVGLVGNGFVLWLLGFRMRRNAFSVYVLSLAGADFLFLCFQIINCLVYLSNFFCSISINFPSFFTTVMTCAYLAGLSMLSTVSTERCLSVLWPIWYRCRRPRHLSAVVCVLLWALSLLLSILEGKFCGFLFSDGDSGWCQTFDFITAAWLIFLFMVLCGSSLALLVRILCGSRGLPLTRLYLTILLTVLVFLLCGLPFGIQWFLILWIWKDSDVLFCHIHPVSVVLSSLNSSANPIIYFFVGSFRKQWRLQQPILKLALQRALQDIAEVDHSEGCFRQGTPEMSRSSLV
# Assay: Ca2+ mobilization assay (FLIPR TETRA): inhibition of Cortistatin-14 mediated MRGPRX2 activation
row,Compound,IC50 [nM]
1,"CC(C(=O)Nc1ccc(F)cn1)N1CCC(F)(F)C(c2c[nH]c(=O)c(C#N)c2)C1 (stereo not drawn) [Example 249, 2-(3-(5-cyano-6-oxo-1,6-dihydropyridin-3-yl)-4,4-difluoropiperidin-1-yl)-N-(5-fluoropyridin-2-yl)propanamide]",100 to 3160
2,"C[C@@H](C(=O)Nc1ccc(F)cn1)[C@H]1CCC(F)(F)[C@@H](c2ccc(=O)[nH]c2)C1 [Example 277, (R)-2-((1S,3R)-4,4-difluoro-3-(6-oxo-1,6-dihydropyridin-3-yl)cyclohexyl)-N-(5-fluoropyridin-2-yl)propanamide]",10 to 100
3,"C[C@@H](C(=O)Nc1ccc(Oc2ccc(F)c(F)c2F)cn1)N1CCC(F)(F)[C@@H](c2cc[n+]([O-])cc2)C1 [Example 131, 4-((S)-4,4-difluoro-1-((S)-1-oxo-1-((5-(2,3,4-trifluorophenoxy)pyridin-2-yl)amino)propan-2-yl)piperidin-3-yl)pyridine 1-oxide]",≤ 10
4,"CC(C(=O)Nc1ccc(Br)cn1)N1CCC(F)(F)[C@@H](c2ccc(=O)[nH]c2)C1 (stereo partly drawn) [Example 94, N-(5-bromopyridin-2-yl)-2-((S)-4,4-difluoro-3-(6-oxo-1,6-dihydropyridin-3-yl)piperidin-1-yl)propanamide]",100 to 3160
5,"C[C@@H](C(=O)Nc1cnc(Oc2ccccc2)cn1)N1CCC(F)(F)[C@@H](c2ccc(=O)[nH]c2)C1 [Example 60, (S)-2-((S)-4,4-difluoro-3-(6-oxo-1,6-dihydropyridin-3-yl)piperidin-1-yl)-N-(5-phenoxypyrazin-2-yl)propanamide]",10 to 100
6,"C[C@@H](C(=O)Nc1ccc(OCC2CC2)nn1)N1CCC(F)(F)[C@@H](c2c[nH]c(=O)c(N)c2)C1 [Example 140, (S)-2-((S)-3-(5-amino-6-oxo-1,6-dihydropyridin-3-yl)-4,4-difluoropiperidin-1-yl)-N-(6-(cyclopropylmethoxy)pyridazin-3-yl)propanamide]",10 to 100

# More lines, now with the values ahead:
row,IC50 [nM],Compound
1,100 to 3160,"CC(C(=O)Nc1ccc(CC2CCCC2)cn1)N1CCC(F)(F)[C@@H](c2ccc(=O)[nH]c2)C1 (stereo partly drawn) [Example 33, N-(5-(cyclopentyl-methyl)pyridin-2-yl)-2-((S)-4,4-difluoro-3-(6-oxo-1,6-dihydropyridin-3-yl)piperidin-1-yl)propanamide]"
2,10 to 100,C[C@@H](C(=O)Nc1cnc(Oc2ccc(F)cc2CO)cn1)N1CCC(F)(F)[C@@H](c2ccc(=O)[nH]c2)C1 [Example 272]
3,≤ 10,"C[C@@H](C(=O)Nc1ccc(OCC2CC2)cn1)N1CCC(F)(F)[C@@H](c2c[nH]c(=O)cn2)C1 [Example 133, (S)—N-(5-(cyclopropylmethoxy)pyridin-2-yl)-2-((R)-4,4-difluoro-3-(5-oxo-4,5-dihydropyrazin-2-yl)piperidin-1-yl)propanamide]"
4,100 to 3160,"C[C@@H](C(=O)Nc1ccc(Oc2ccc(F)cc2CN(C)C)cn1)N1CCC(F)(F)[C@@H](c2ccc(=O)[nH]c2)C1 [Example 98, (S)-2-((S)-4,4-difluoro-3-(6-oxo-1,6-dihydropyridin-3-yl)piperidin-1-yl)-N-(5-(2-((dimethylamino)methyl)-4-fluorophenoxy)pyridin-2-yl)propanamide]"
5,10 to 100,"C[C@@H](C(=O)Nc1ccc(OCC2CC2)cn1)N1CCC(F)(F)[C@@H](c2ccc(=O)[nH]n2)C1 [Example 145, (S)—N-(5-(cyclopropylmethoxy)pyridin-2-yl)-2-((R)-4,4-difluoro-3-(6-oxo-1,6-dihydropyridazin-3-yl)piperidin-1-yl)propanamide]"
6,≤ 10,"CC(C(=O)Nc1cnc(Oc2ccc(F)cc2F)cn1)N1CCC(F)(F)C(c2cc[n+]([O-])c(C(N)=O)c2)C1 (stereo not drawn) [Example 260, 2-carbamoyl-4-(1-(1-((5-(2,4-difluorophenoxy)pyrazin-2-yl)amino)-1-oxopropan-2-yl)-4,4-difluoropiperidin-3-yl)pyridine 1-oxide]"
